For assay [1], the target named is T1, ALDH7A1 (Homo sapiens, UniProt P49419).
T1 sequence (P49419 1-511 isoform P49419-2): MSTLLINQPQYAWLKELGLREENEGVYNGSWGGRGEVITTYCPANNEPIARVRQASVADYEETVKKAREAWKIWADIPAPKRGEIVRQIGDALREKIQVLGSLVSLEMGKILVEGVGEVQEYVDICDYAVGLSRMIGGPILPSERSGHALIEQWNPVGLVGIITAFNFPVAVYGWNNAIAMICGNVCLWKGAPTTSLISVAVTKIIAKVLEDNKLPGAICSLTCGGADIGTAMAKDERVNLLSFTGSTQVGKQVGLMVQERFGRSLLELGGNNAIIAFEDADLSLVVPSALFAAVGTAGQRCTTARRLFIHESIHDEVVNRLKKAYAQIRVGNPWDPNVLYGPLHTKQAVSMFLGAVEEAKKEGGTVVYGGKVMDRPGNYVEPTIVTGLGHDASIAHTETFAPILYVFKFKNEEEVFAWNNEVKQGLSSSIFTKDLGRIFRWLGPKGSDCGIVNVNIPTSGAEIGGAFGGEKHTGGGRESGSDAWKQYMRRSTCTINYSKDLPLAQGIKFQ
Nature of the assay: X-ray crystal structure, co-crystallization. It is filed as binding. The conditions noted are these: 175 mM PA, pH 7.2, 1.88 Å; aldehyde substrate site.

Assay [2] addresses T1, ALDH7A1. Kind of assay: X-ray crystal structure, co-crystallization. It is filed as binding. The conditions noted are these: 15 mM NAD+, pH 6.8, 1.85 Å; Rossmann fold cofactor site.

As for `O=C(O)[C@@H]1CCCCN1` [PA, L-pipecolic acid], at ALDH7A1 [1], the “X-ray crystal structure, co-crystallization” value was “we obtained a structure of W175A complexed with the P6C analog L-pipecolic acid (PA)”.

`NC(=O)c1ccc[n+]([C@@H]2O[C@H](COP(=O)(O)OP(=O)(O)OC[C@H]3O[C@@H](n4cnc5c(N)ncnc54)[C@H](O)[C@@H]3O)[C@@H](O)[C@H]2O)c1` [NAD^+]: at ALDH7A1 [2], the “X-ray crystal structure, co-crystallization” value was “The structures of W175G and W175A complexed with NAD^+ were determined”.

The values above are taken from publication PMC6944758 (The FEBS journal, 2019).
